From EPA's ToxValDB 9.5
“And” between values parts separate entries of the source, which are not always exact repeats. Equal entries are not always repeated. Blank lines part the entries; values can stand above or below the molecule they belong to.

Tests used:
Monkey [1] = conditions: duration: 13 weeks, oral, flavoured beverage, F, Cynomolgus, Estrogenic effects on maturation of vaginal epithelial cells
Rattus norvegicus [2] = conditions: oral; for NOAEL: drinking water
Oryctolagus sp. [3] = conditions: developmental; oral; gavage; Prominent liver lobulation
Oryctolagus sp. [4] = assay: LC60; higher = less toxic; conditions: acute; oral
Rattus norvegicus [5] = conditions: oral; for LD50: acute
Rattus norvegicus [6] = assay: LD5; higher = less toxic; conditions: developmental, oral, drinking water, M/F, Wistar
Oryctolagus sp. [7] = assay: LD40; higher = less toxic; conditions: acute; dermal; occlusive
Cavia porcellus = conditions: uterotrophic; duration: 12 days; injection; subcutaneous; Guinea Pig; Active
Mus musculus [8] = conditions: subchronic; inhalation; M/F; mortality
Mus musculus [9] = assay: FEL; higher = less toxic; conditions: subchronic; inhalation; M/F; mortality
Mus musculus [10] = conditions: chronic, duration: 92 days, inhalation, intermittent
Rattus norvegicus [11] = conditions: subchronic; duration: 90 days; oral; drinking water; Nerve: Damage
Monkey [12] = conditions: chronic; duration: 363 days; oral; diet
Canidae = conditions: short-term; duration: 22 days; oral; Beagle
Mus musculus [13] = conditions: oral, gavage
Mus musculus [14] = conditions: chronic; duration: 2 years; oral; drinking water; M/F; B6C3F1; Hardarian gland & lung tumors (males)
Rattus norvegicus [15] = conditions: subchronic; duration: 90 days; oral; drinking water; M/F; Fischer 344; neurological
Dog, Mouse, Rat = conditions: oral; Effects on the reproductive system and developing nervous system
Mus musculus [16] = conditions: developmental; oral; diet; M/F; Swiss-Webster; Nervous
Mus musculus [17] = conditions: oral, diet, M/F, Swiss-Webster, neurological
Bacteria = conditions: In vitro / microbiological; Growth inhibition
Rattus norvegicus [18] = conditions: subchronic; oral; gavage; M/F; Fischer 344; Deaths + Clinical Observation: Nasal and eye discharge Lacrimation Salivation Tremors + Functional Observational Battery: Lacrimation or …
Mus musculus [19] = assay: LD100; higher = less toxic; conditions: acute; oral; TAC:SWfBr
[20] = short-term, duration: 28 days, gavage, Sprague-Dawley
[21] = reproduction developmental, duration: 10 weeks, drinking water, F, Fischer 344
[22] = reproduction developmental, duration: 10 weeks, drinking water, M, Fischer 344
[23] = reproduction developmental, duration: 80 days, drinking water, Long-Evans
[24] = subchronic, duration: 13 weeks, gavage, Fischer 344

SMILES: CC1CCCC(O)CCCCCc2cc(O)cc(O)c2C(=O)O1 (centres undefined)
NOEL (Monkey [1]): 0.05 mg/kg-day
NOEL (Monkey [1]; subchronic): 0.05 mg/kg-day

SMILES: Cc1cc(C)[nH]c(=O)n1.O=C(Nc1ccc([N+](=O)[O-])cc1)Nc1ccc([N+](=O)[O-])cc1 [1,3-Bis(4-nitrophenyl)urea 4,6-dimethylpyrimidin-2-ol (1:1)]
NOEL (Rattus norvegicus [2]; reproduction developmental, gavage, M/F, CD/CRJ, Maternal mortality & decreased bodyweight gain & feed consumption / decreased bodyweight & various malformations in offspring): 200 mg/kg-day
NOAEL (Oryctolagus sp. [3]): 60 mg/kg-day

SMILES: Cc1ccc(C)c(O)c1 [2,5-Dimethylphenol]
LC60 (Oryctolagus sp. [4]): 938 mg/kg
LD50 (Rattus norvegicus [5]): 444 mg/kg

SMILES: CCC(C)O (centres undefined) [2-Butanol]
LD5 (Rattus norvegicus [6]): 657 mg/kg-day

SMILES: N#Cc1cccnc1 [3-Pyridinecarbonitrile]
LD50 (Rattus norvegicus [5]; gavage, Sprague-Dawley): 1460 mg/kg and 1480 mg/kg
LD50 (Rattus norvegicus [5]; gavage, Wistar): 1100 mg/kg
LOAEL (Rattus norvegicus [5]; [20]): 30 mg/kg-day
NOAEL (Rattus norvegicus [5]; [20]): 5 mg/kg-day
LD40 (Oryctolagus sp. [7]): ≥ 2000 mg/kg and ≤ 4000 mg/kg

LEL (Cavia porcellus): 0.1 mg/day
SMILES: CC/C(=C(\c1ccc(O)cc1)c1ccc(OCCN(C)C)cc1)c1ccccc1 [4-Hydroxytamoxifen]

SMILES: CC#N [Acetonitrile]
NOAEL (Mus musculus [8]): 336 mg/m3
FEL (Mus musculus [9]): 672 mg/m3
NOAEL (Mus musculus [10]; Blood: Decreased hematocrit + Erythrocytes: Decreased cell count + Liver: Hepatic lesions): 168 mg/m3
NOAEL (Mus musculus [10]; Liver: Increased relative weight): 168 mg/m3

SMILES: C=CC(N)=O [Acrylamide]
NOEL (Rattus norvegicus [11]): 0.2 mg/kg-day
NOAEL (Monkey [12]): ≥ 1 mg/kg-day and ≤ 3 mg/kg-day
NOAEL (Rattus norvegicus [5]; chronic, duration: 93 days, drinking water, Fischer 344): 0.2 mg/kg-day
NOAEL (Rattus norvegicus [5]; chronic, drinking water, Fischer 344): 0.1 mg/kg-day
NOAEL (Rattus norvegicus [5]; developmental, gavage, Sprague-Dawley / Mice: Swiss): 15 mg/kg-day
LOAEL (Rattus norvegicus [5]; [21]): 2 mg/kg-day
NOAEL (Rattus norvegicus [5]; [21]): 0.5 mg/kg-day
NOAEL (Rattus norvegicus [5]; reproduction developmental, duration: 10 weeks, drinking water, Long-Evans, generation: F0): 5 mg/kg-day
LOAEL (Rattus norvegicus [5]; [22]): 2 mg/kg-day
NOAEL (Rattus norvegicus [5]; [22]): 0.5 mg/kg-day
LOAEL (Rattus norvegicus [5]; [23]): 2.8 mg/kg-day
NOAEL (Rattus norvegicus [5]; [23]): 1.5 mg/kg-day
NOAEL (Rattus norvegicus [5]; reproduction developmental, drinking water, Fischer 344, generation: F0): 0.5 mg/kg-day
NOAEL (Rattus norvegicus [5]; reproduction developmental, drinking water, Fischer 344, generation: F1): 2 mg/kg-day
NOAEL (Rattus norvegicus [5]; reproduction developmental, drinking water, Fischer 344, generation: F2): 2 mg/kg-day
NOAEL (Rattus norvegicus [5]; reproduction developmental, gavage, F, Sprague-Dawley / Mice: Swiss): 2.5 mg/kg-day
NOAEL (Rattus norvegicus [5]; short-term, duration: 28 days, drinking water, Fischer 344): ≥ 4.1 mg/kg-day and ≤ 4.3 mg/kg-day
NOAEL (Rattus norvegicus [5]; [24]): 5 mg/kg-day
NOAEL (Canidae): 5 mg/kg-day
NOAEL (Mus musculus [13]; developmental, Swiss): 15 mg/kg-day
NOAEL (Mus musculus [13]; reproduction developmental, F, Swiss): 2.5 mg/kg-day
NOAEL (Rattus norvegicus [2]; chronic, duration: 2 years, M/F, Fischer 344, neurotoxicity): 0.67 mg/kg-day and 1.88 mg/kg-day
LOEL (Mus musculus [14]): 1.05 mg/kg-day
NOAEL (Rattus norvegicus [15]): 0.2 mg/kg-day

SMILES: [Al] [Aluminum]
NOAEL (Rattus norvegicus [2]; developmental, Renal damage (hydronephrosis, urethral dilatation, obstruction and/or presence of calculi) and reduced grip strength, but not cognitive …): 30 mg/kg-day
LOEL (Dog, Mouse, Rat): 50 mg/kg-day and 75 mg/kg-day
LOAEL (mg Al/kg-day) (Mus musculus [16]): 100
LOAEL (Mus musculus [17]; chronic, duration: 24 months): 100 mg/kg-day
NOAEL (Mus musculus [17]; developmental, duration: 364 days): 26 mg/kg-day

SMILES: CN[C@@H]1[C@@H](O[C@H]2O[C@H](CO)[C@@H](N)[C@H](O)[C@H]2O)O[C@H]2C[C@@H](N)[C@@H](O[C@H]3[C@H](O)[C@@H](O)[C@H](N)C[C@@H]3N)O[C@@H]2[C@@H]1O [Apramycin]
NOAEC (Bacteria): 8.3 µg/mL

SMILES: C[N+](C)(C)Cc1ccccc1.[Cl-] [Benzyltrimethylammonium chloride]
NOEL (Rattus norvegicus [18]): < 12.5 mg/kg-day
LD50 (Rattus norvegicus [5]; gavage, Fischer 344): 180 mg/kg
NOAEL (Rattus norvegicus [5]; short-term, duration: 28 days, Crj:CD): 30 mg/kg-day
NOAEL (Rattus norvegicus [5]; short-term, duration: 28 days, F, Crj:CD): 60 mg/kg-day
NOAEL (Rattus norvegicus [5]; [24]): 25 mg/kg-day
NOAEL (Mus musculus [13]; subchronic, duration: 13 weeks, B6C3F1): 25 mg/kg-day
LD100 (Mus musculus [19]): 1600 mg/kg
